Where a SMILES comes first, the peptide text is derived from it. [ ]: non-standard residue; d: D form. The star is where a group is joined. ξ: configuration not given here. NMeIle(3ξ) = CCC(C)[C@H](NC)C(=O)O; Dab = NCC[C@H](N)C(=O)O; Hexanoyl = CCCCCC(=O)*; Bz = O=C(c1ccccc1)*; NHOH = ON*
How the values were obtained:
[1] = target: MMP-1 (Homo sapiens (Human), UniProt P03956); assay: MMP-1 inhibition assay (fluorogenic peptide substrate); type: biochemical; settings: recombinant MMP-1 5.52 nM, Mca-PLGL-Dpa-AR-NH2 10 μM, 4 hours at room temperature; tested at 1, 10, 100 and 200 μM
MMP-1, sequence (P03956 100-269): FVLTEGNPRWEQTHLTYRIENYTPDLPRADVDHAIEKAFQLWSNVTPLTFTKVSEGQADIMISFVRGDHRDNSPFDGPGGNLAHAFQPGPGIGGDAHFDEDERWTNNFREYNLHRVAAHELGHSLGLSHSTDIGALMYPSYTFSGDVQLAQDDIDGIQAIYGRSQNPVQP
Description: All the experiments were done in 1× reaction buffer, which was obtained from a 10× reaction buffer solution. The content of the 10× reaction buffer was: 50 mL of 0.5 M Tris-HCl, 1.5 M NaCl, 50 mM CaCl2 and 2 mM sodium azide at pH 7.6. To obtain the 1× reaction buffer 4 mL of the 10× reaction buffer were diluted in 36 mL of H2O.
Recombinant MMP-1 expressed in E. Coli was obtained from Enzo Life Sciences (catalog number BML-SE180). Mca-PLGL-Dpa-AR-NH2 (fluorogenic peptide substrate) was obtained from R&D Systems (catalog number ES001).
Preparation of the MMP-1 for the activity assay: MMP-1 was provided as a stock solution (0.55 mg/mL). The enzyme was diluted in 1× reaction buffer to a final concentration of 276 nM.
MMP-1 peptide substrate was provided as a stock solution in DMSO (6 mM). For the assay, the substrate was diluted 1× reaction buffer to a concentration of 100 μM.
Procedure: The enzymatic assays were performed in 96-well microtiter plate, which allowed simultaneous monitoring of multiple reactions. For each reaction, 86 μL of 1× reaction buffer (pH 7.6), 2 μL of MMP-1 (final concentration 5.52 nM) and 2 μL of the corresponding new compound were added to each well. A stock solution of the new compound was prepared in DMSO (100 mM), and dilutions were prepared from this stock solution with DMSO. Finally, to the mixture contained in each well 10 μL of the substrate were added (final concentration 10 μM). The reaction was incubated for 4 hours at room temperature in an orbital shaker (100 rpm).
The inhibitory activity of the new compound was measured fluorimetrically. The excitation and emission wavelengths were 320 and 405 nm, respectively.
Inhibitory activity at several concentration points (1, 10, 100 and 200 μM) were measured for each compound. The inhibitory activity on MMP-1, MMP-3 and MMP-7 was calculated according to eq 1 and The IC50 value was calculated as explained above for MMP-2 and MMP-9.

[2] = Parallel artificial membrane permeability assay (PAMPA), Blood-Brain Barrier; type: in vitro ADME; settings: initial concentration 200 μM, pH 7.4, 4 hours; for Papp at 4 h, 200 µM: pig, read-out: Effective permeability Pe
Description: Parallel Artificial Membrane Permeability Assay (PAMPA)
Parallel artificial membrane permeability assay (PAMPA) described in Kansy et al., J. M. Chem. 1998; 41(7):1007-10 was used here to determine the capacity of compounds to cross the Blood-Brain Barrier (BBB) by passive diffusion (Di L et al., Eur. J. Med. Chem. 2003; 38(3):223-32). The effective permeability (Pe) of the compounds was measured at an initial concentration of 200 μM. The buffer solution was prepared from a commercial concentrated one following the manufacturer's instructions. pH was adjusted to 7.4 using a 0.5 M NaOH solution. A stock solution of new compound was prepared in DMSO and diluted with buffer solution to a final 200 μM concentration (0.5% DMSO content). The PAMPA sandwich was separated and each donor well was filled with […] of the compound solution. The acceptor plate was placed into the donor plate, ensuring that the underside of the membrane was in contact with buffer. 4 μL of the mixture of phospholipids (20 mg/ml) in dodecane was added to the filter of each well, and 200 μL of buffer solution was added to the each acceptor well. The plate was covered and incubated at room temperature in a saturated humidity atmosphere for 4 hours under orbital agitation at 100 rpm. After 4 hours, the contents of the acceptor and donor compartments were analyzed by HPLC: 150 μL of each well from the donor plate and 150 μL of each well from the acceptor plate were transferred to HPLC vials, injecting each sample into a reverse-phase C18 column (150 mm×4.6 mm×5 μm, 100 Å) (100 μL/injection from the acceptor wells, 10 μL/injection from the donor wells and for t0 references). Transport was also confirmed using mass spectrometry (MALDI-TOF).
The phospholipid mixture used was a porcine polar brain lipid extract, provided by Avanti polar lipids, with the following composition: 12.6% phosphatidylcholine (PC), 33.1% phosphatidylethanolamine (PE), 18.5% phosphatidylserine (PS), 4.1% phosphatidylinositol (PI), 0.8% phosphatidic acid and 30.9% of other compounds.
The effective permeability (Pe) after 4 hours was calculated using equation 2 and the percentage of transport (T %) was calculated using equation 3: […]
Ca(t) is the compound concentration in the acceptor well at time t
And Cd(t0) is the compound concentration in the donor well at t0.

Structure (SMILES) | IC50 [1] [µM] | percentage of transport % T [2] [%] | Papp at 4 h, 200 µM [2] [×10⁻⁶ cm/s] | MMP-1 IC50 [1] [µM]
CCCCCC(=O)N1CCC[C@H]1C(=O)N(C)[C@H](C(=O)N[C@@H](CCNC(=O)c1ccccc1)C(=O)NO)C(C)CC (stereo partly drawn) [Example 15, (2S)—N-[(1S)-1-[[(1S)-3-benzamido-1-(hydroxycarbamoyl)propyl]carbamoyl]-2-methyl-butyl]-N-methyl-1-hexanoyl-pyrrolidine-2-carboxamide] (Hexanoyl-Pro-[NMeIle(3ξ)]-[Dab](Bz)-{NHOH}) | 10.8 | 2.3 | 1.1 | 
CCC(C)[C@@H](C(=O)N[C@@H](CCNC(=O)c1cc(F)cc(F)c1)C(=O)NO)N(C)C(=O)[C@@H]1CC(F)(F)CN1C(=O)CCCOc1ccccc1 (stereo partly drawn) [Example 10, (2S)—N-[(1S)-1-[[(1S)-3-[(3,5-difluorobenzoyl)amino]-1-(hydroxycarbamoyl)propyl]carbamoyl]-2-methyl-butyl]-4,4-difluoro-N-methyl-1-(4-phenoxybutanoyl)pyrrolidine-2-carboxamide] | 6.61 | 13.6 | 7.6 | 
CCCCCCCC(=O)N1CCC[C@H]1C(=O)N(C)[C@H](C(=O)N[C@@H](CCNC(=O)c1cc(F)cc(F)c1)C(=O)NO)C(C)CC (stereo partly drawn) [Example 6, (2S)—N-[(1S)-1-[[(1S)-3-[(3,5-difluorobenzoyl)amino]-1-(hydroxycarbamoyl)propyl]carbamoyl]-2-methyl-butyl]-N-methyl-1-octanoyl-pyrrolidine-2-carboxamide] | 25.6 | 14.3 | 3.5 | 
CCC(C)[C@@H](C(=O)N[C@@H](CCNC(=O)c1ccc(F)cc1)C(=O)NO)N(C)C(=O)[C@@H]1CCCN1C(C)=O (stereo partly drawn) [Example 1, (2S)-1-acetyl-N-[(1S)-1-[[(1S)-3-[(4-fluorobenzoyl)amino]-1-(hydroxycarbamoyl)propyl]carbamoyl]-2-methyl-butyl]-N-methyl-pyrrolidine-2-carboxamide] |  | 0.4 | 0.094 | <1

From patent US10414797B2, “Gelatinase inhibitors and use thereof” (Iproteos S.L, priority 2015, dated 2019)
